# Assay results published in patent publication US20250041284A1, “TREATMENT OF NEUROLOGICAL DISORDERS” (Praxis Precision Medicines, Inc., priority 2022, published 2025).
# Experiments:
# human NaV1.6 = biological target: T1, human NaV1.6 (Homo sapiens, UniProt Q9UQD0); test: Peak INa use-dependent block (UDB-10 Hz), automated patch clamp in HEK cells; format: cell-based
# T1 construct: HEK-293 cell lines stably expressing human NaV1.6 (NP_055006) were used; expressed in transfected cells
# in vivo = conditions: rat
# [1] = Spontaneous locomotor activity (sLMA) (Example 8); format: in vivo, mouse; conditions: male, CD-1, mouse, in vivo, po, 30 min before test, distance travelled
# Description: (§1) Male CD-1 mice (Vital River, Beijing, China) approximately 6 weeks old were used for the study. Body weights were between 25 g and 35 g at the time of experiment.
# (§2) Treatment was conducted using Compound 1 and 35% 2-hydroxypropyl-β-cyclodextrin (35% HPBCD, used as a negative control). Compound 1 stock solution was prepared fresh each experiment day in 35% HPBCD and protected from light. The stock solution was diluted with vehicle for lower doses.
# (§3) The spontaneous locomotor activity (sLMA) test for each study was carried out over three days, with mice from each treatment group tested each day. The treatment groups included mice dosed with vehicle (35% HPBCD) and with Compound 1 at the dose of 3 mg/kg, 5.6 mg/kg, 10 mg/kg and 20 mg/kg. Mice were randomly assigned into one of the treatment groups.
# (§4) A single dose of Compound 1 (3 mg/kg, 5.6 mg/kg, 10 mg/kg and 20 mg/kg) or vehicle (35% HPBCD) was administered to mice via oral gavage 30 minutes prior to testing. Immediately prior to conducting the sLMA test, a brief neurological assessment was performed. Each animal was visually assessed for sedation and ataxia.
# (§5) Activity was recorded by overhead cameras and was analyzed offline. Video tracking analysis software was used to determine total distance travelled in millimeters. Distance travelled was also calculated in 5-minute bins.
# (§6) All statistical analyses were conducted using GraphPad Prism 9.3. Means were combined and standard error was calculated using the Satterthwaite Approximation to combined standard deviations. […] TD50 and TC50 values were calculated from these fit curves.
# [2] = system: locomotor activity of male CD-1 mice; test: Spontaneous locomotor activity (sLMA) (Example 8); format: in vivo, mouse
# Description: as §1, §2, §3, §4, §5, §6
# T1 sequence (Q9UQD0 whole entry): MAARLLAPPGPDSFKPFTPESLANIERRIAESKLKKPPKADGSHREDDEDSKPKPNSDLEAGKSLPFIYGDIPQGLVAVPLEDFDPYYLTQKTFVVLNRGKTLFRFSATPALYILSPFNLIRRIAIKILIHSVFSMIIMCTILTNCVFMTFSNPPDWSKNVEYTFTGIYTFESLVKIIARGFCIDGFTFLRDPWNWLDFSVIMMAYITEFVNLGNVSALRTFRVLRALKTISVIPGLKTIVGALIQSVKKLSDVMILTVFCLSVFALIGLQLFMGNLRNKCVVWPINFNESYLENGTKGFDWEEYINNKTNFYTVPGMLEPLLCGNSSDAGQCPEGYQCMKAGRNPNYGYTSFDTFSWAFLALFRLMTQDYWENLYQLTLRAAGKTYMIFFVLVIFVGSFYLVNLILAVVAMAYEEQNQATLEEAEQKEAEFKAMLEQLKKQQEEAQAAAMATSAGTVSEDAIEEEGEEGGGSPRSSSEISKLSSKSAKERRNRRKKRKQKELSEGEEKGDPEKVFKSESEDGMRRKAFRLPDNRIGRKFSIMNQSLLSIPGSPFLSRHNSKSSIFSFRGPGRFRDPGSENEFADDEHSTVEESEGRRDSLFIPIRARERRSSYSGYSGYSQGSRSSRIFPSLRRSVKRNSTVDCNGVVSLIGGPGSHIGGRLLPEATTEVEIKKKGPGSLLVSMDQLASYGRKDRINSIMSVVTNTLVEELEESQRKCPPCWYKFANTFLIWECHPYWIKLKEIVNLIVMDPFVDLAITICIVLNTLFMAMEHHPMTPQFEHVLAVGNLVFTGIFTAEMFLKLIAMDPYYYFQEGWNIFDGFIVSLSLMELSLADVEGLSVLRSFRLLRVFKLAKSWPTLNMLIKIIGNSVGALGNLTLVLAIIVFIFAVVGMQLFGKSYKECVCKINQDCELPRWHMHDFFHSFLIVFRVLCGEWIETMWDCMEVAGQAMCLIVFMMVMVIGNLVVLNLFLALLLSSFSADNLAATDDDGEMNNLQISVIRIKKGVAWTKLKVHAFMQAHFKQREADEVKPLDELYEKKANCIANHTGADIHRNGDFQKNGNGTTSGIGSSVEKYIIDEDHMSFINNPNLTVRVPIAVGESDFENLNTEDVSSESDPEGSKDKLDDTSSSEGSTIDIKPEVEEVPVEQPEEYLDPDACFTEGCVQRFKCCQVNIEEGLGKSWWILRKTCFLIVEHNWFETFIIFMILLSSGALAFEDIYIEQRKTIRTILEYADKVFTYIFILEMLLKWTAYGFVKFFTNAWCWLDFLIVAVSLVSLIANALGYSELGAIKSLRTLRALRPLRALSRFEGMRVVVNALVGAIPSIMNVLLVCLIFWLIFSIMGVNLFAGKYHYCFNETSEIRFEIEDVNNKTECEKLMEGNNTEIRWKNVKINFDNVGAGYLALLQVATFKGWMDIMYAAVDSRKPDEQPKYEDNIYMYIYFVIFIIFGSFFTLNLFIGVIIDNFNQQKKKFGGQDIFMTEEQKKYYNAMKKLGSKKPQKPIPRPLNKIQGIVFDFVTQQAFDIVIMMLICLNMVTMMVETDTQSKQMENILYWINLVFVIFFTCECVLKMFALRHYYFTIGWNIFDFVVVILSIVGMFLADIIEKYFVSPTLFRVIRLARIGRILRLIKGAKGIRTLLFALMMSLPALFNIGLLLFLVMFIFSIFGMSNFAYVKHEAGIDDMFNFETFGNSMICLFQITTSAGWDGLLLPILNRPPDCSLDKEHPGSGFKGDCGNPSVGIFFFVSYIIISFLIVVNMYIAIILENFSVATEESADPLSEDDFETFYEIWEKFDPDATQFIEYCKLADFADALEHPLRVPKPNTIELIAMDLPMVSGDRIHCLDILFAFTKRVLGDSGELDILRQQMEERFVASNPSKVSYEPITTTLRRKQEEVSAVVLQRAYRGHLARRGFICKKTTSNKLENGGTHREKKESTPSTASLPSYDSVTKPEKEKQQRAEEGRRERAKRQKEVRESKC
smiles,measurement,setting,value
CCOC(F)(F)c1nnc2ccc(-c3cnc(OCC(F)(F)F)c(F)c3)cn12 [Compound 1],Emax,"human NaV1.6; HEK293, fitted maximum of Hill equation, read-out: Peak INa UDB-10 Hz Max effect",100%
same,UDB preference to TB,human NaV1.6; TB IC50 / UDB IC50,44 ×
same,Ratio to Pers. INa (Peak INa UDB-10 Hz),human NaV1.6; UDB IC50 / persistent INa IC50,1.6
same,activity dependent block of peak INa,"human NaV1.6; in words, FIGS. 7A-7C",enhanced activity dependent inhibition of peak INa
same,Peak INa UDB-10 Hz Hill slope,human NaV1.6; use-dependent block 10 Hz,(0.7)
same,IC50,"human NaV1.6; use-dependent block, Vm -120 mV, 10 Hz",200 nM
same,AUC(0-inf),in vivo,7500 ng·h/mL
same,TD50,[1],10.4 mg/kg
same,sedation or ataxia,[2]; 3 mg/kg and 5.6 mg/kg p.o.,No sedation or ataxia was observed
same,mice with sedation and/or ataxia,[2]; 10 mg/kg p.o.,five
same,mice with sedation and/or ataxia,[2]; 20 mg/kg p.o.,eight
same,sLMA brain TC50,[2]; brain concentration,1914 ng/g
same,sLMA plasma TC50,[2]; plasma concentration,1.256 µg/mL
